According to US10155728B2, “Compounds for treatment of cancer” (GTX INC., priority 2014, dated 2018):
Values joined by “and” are separate entries in the source; they are usually repeats but may differ in a detail not shown here. Equal values may be shown once. Read-outs that look alike come from different tables or passages of the source.

Assays:
[1] = Microsomal stability assay, rat; type: in vitro ADME; settings: for T1/2: rat liver microsomes, 0.5 μM
Experimental: (§1) Microsomal Stability Assay. […] For metabolite identification, the reaction mixture was incubated for 2 h with 50 μM test compound concentration under the previously described conditions. The supernatants were analyzed using a Water Xevo G2-S high resolution mass spectrometer.

[2] = Microsomal stability assay, mouse; type: in vitro ADME; settings: for T1/2: mouse liver microsomes, 0.5 μM
Experimental: as §1

[3] = Microsomal stability assay, human; type: in vitro ADME; settings: for T1/2: human liver microsomes, 0.5 μM
Experimental: as §1

[4] = test system: A375 cells; experiment: SRB cytotoxicity assay, A375 melanoma cells; type: cell-based; settings: for IC50: SRB assay after 96 h of treatment, read-out: IC50 against A375 cells
[5] = test system: melanoma and prostate cancer cell lines; experiment: SRB cytotoxicity assay, melanoma and prostate cancer cell lines; type: cell-based; settings: SRB 96 h
[6] = test system: prostate cancer cells
[7] = Metabolite identification in liver microsomes; type: in vitro ADME; settings: 50 μM, 2 h incubation, high resolution MS
Experimental: as §1
We utilized a high resolution mass spectrometer for the identification of the metabolites with a mass error of less than 2 ppm generally. The detailed information regarding the mass spectrum and the chromatogram of each of the metabolites are presented in the supplementary materials. […] M4 (identified by mass spectrum 388.12 [M+1]) was the product that resulted from ketone reduction and it was further hydroxylated to M5 (identified by mass spectrum 404.12 [M+1]) at a position that was unidentifiable due to limited information. […] M7 (deamination) (identified by mass spectrum 370.11 [M+1]) was a minor product. […] M9 (identified by mass spectrum 386.15 [M+1]) and M10 (identified by mass spectrum 416.16 [M+1]) had more than one possible structure as indicated in the chromatograms. For 7 (FIG. 11), various metabolites including 0-demethylation (M12) (identified by mass spectrum 387.15 [M+1]), mono-hydroxylation (M14) (identified by mass spectrum 417.16 [M+1]), O-demethylation followed by mono-hydroxylation (M11) (identified by mass spectrum 403.14 [M+1]), and dihydroxylation (M13) (identified by mass spectrum 433.15 [M+1]) were detected.

[8] = target: T1, Bovine brain tubulin (Bos taurus, UniProt P81947+Q6B856); experiment: In vitro tubulin polymerization assay; type: biochemical; settings: for inhibition at 5 µM / inhibition at 10 µM: after 20 min incubation, compared to vehicle; for Inhibition of tubulin polymerization relative to colchicine (in words): 5 and 10 μM
T1 construct: Bovine brain tubulin (0.4 mg, >97% pure) (Cytoskeleton, Denver, Colo.); purchased Cytoskeleton, Denver, Colo; host or cells: bovine brain tissue
T1 sequence (Q6B856 whole entry): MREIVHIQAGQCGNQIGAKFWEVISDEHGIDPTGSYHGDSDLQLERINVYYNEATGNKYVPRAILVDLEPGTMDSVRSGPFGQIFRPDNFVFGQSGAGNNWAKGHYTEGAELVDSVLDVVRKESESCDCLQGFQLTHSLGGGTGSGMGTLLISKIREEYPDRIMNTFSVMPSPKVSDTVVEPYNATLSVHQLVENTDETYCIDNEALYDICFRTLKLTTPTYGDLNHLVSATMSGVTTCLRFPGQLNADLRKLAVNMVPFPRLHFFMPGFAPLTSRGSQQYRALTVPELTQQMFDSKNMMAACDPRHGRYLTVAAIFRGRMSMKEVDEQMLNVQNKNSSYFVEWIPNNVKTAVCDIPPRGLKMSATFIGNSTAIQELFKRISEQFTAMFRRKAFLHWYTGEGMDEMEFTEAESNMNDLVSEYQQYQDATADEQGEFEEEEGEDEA
T1 sequence (P81947 whole entry): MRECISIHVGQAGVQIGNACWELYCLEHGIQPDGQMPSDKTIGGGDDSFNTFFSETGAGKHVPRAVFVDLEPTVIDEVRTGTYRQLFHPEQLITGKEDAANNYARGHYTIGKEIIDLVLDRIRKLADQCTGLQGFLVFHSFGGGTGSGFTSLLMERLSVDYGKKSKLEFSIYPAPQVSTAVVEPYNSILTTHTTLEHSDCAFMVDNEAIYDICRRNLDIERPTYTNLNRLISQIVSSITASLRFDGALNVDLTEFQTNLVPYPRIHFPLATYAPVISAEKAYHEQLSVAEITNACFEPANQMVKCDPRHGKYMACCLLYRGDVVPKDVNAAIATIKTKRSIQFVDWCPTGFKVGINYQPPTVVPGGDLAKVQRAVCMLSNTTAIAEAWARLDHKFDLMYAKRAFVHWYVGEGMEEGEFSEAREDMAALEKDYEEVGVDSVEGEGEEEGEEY
Experimental: In Vitro Tubulin Polymerization Assay. […] […] The spectrophotometer was set at 37° C. for tubulin polymerization. […] DMSO was used as a blank control.

[9] = test system: K562 human leukemia cells; settings: read-out: IC50 against K562 human leukemia cells; cited from earlier work
[10] = test system: LNCaP cells; experiment: SRB cytotoxicity assay, LNCaP prostate cancer cells; type: cell-based, human; settings: androgen sensitive prostate cancer LNCaP cells
[11] = Microsomal stability, liver microsomes over tested species; type: in vitro ADME
Experimental: as §1

Row | T1/2 [1] | T1/2 [2] | T1/2 [3] | Compound | Antiproliferative activity (in words) [5] | Major metabolites / metabolic pathway [7] | also measured
1 |  |  | 50.7 ± 1.2 min | COc1cc(-c2cccc3[nH]c(-c4c[nH]c5ccccc45)nc23)cc(OC)c1OC [Compound 4, 2-(1H-Indol-3-yl)-4-(3,4,5-trimethoxyphenyl)-1H-benzo[d]imidazole] | comparable potency | O-demethylation (M9) and mono-hydroxylation (M10) | half-life at 0.5 μM ([1]; pH 7.4, rat liver microsomes): 72.3 ± 4.6 min; inhibition at 5 µM [8]: 30%; inhibition at 10 µM [8]: 60%; Inhibition of tubulin polymerization relative to colchicine (in words) [8]: stronger inhibition than colchicine; half-life at 0.5 μM ([2]; pH 7.4, mouse liver microsomes): 53.5 ± 2.4 min; half-life at 0.5 μM ([3]; human, pooled liver microsomes, pH 7.4, human liver microsomes): 51 min
2 | 30.4 ± 1.9 min | 19.7 ± 0.7 min | 45 min and 45.3 ± 2.0 min | COc1cc(-c2nccc3[nH]c(-c4ccc5[nH]ccc5c4)nc23)cc(OC)c1OC [Compound 7, 2-(1H-Indol-5-yl)-4-(3,4,5-trimethoxyphenyl)-1H-imidazo[4,5-c]pyridine] | increased potency | formed very evenly with similar relative amount | IC50 improvement compared to 10 and 4 [10]: at least 5 fold; inhibition at 5 µM [8]: ~33%; inhibition at 10 µM [8]: ~81%; Inhibition of tubulin polymerization relative to colchicine (in words) [8]: stronger inhibition than colchicine; IC50 improvement compared to 10 and 4 ([4]; melanoma A375 cells): at least 5 fold
3 | 9.7 ± 0.4 min | 4.0 ± 0.3 min | 7.8 ± 0.3 min | COCOc1c(OC)cc(C(=O)c2csc(-c3ccccc3)n2)cc1OC [Compound 15, (3,5-Dimethoxy-4-(methoxymethoxy)phenyl)(2-phenylthiazol-4-yl)methanone] | improved activity | removal of the MOM group to form M1 | Metabolic stability (in words) ([11]; any of the tested liver microsomes): did not improve its metabolic stability; half-life at 0.5 μM ([11]; pH 7.4, human, mouse, rat liver microsomes, read-out: T1/2 over tested species liver microsomes): < 10 min; IC50 ([4]; Homo sapiens, A-375): 20 nM

Second part, the compound before the results:

Row | Compound | T1/2 [1] | T1/2 [2] | T1/2 [3] | Antiproliferative activity (in words) [5] | Major metabolites / metabolic pathway [7] | also measured
4 | COc1cc(C(=O)c2csc(-c3ccccc3)n2)cc(OC)c1OC [Compound 10, reference compound] | 31 min | <<5 min | 17 min |  |  | IC50 [4]: 28 nM
5 | COc1cc(C(=O)c2csc(Nc3ccc4[nH]ccc4c3)n2)cc(OC)c1OC [Compound 33, (2-((1H-Indol-5-yl)amino)thiazol-4-yl)(3,4,5-trimethoxyphenyl)methanone] |  |  |  | excellent growth inhibition |  | IC50 change compared to PAT [6]: 2-3 fold
6 | COc1ccc(/C=C(\C)C(=O)c2cc(OC)c(OC)c(OC)c2)cc1O [SD400] |  |  |  |  |  | IC50 [9]: 0.21 nM
7 | COc1cc(C(=O)c2c[nH]c(Nc3ccccc3)n2)cc(OC)c1OC [Compound 27, (2-(Phenylamino)-1H-imidazol-4-yl)(3,4,5-trimethoxyphenyl)methanone] |  |  |  | did not demonstrate any activity |  | 
8 | COc1cc(C(=O)c2csc(-c3ccccc3)n2)cc(OC)c1OC(=O)CCl [Compound 12, 2,6-Dimethoxy-4-(2-phenylthiazole-4-carbonyl)phenyl 2-chloroacetate] |  |  |  | dropped significantly |  | 
9 | COc1cc(C(=O)c2csc(-c3ccccc3)n2)cc(OC)c1OCCN1C(=O)c2ccccc2C1=O [Compound 17, 2-(2-(2,6-Dimethoxy-4-(2-phenylthiazole-4-carbonyl)phenoxy)ethyl)isoindoline-1,3-dione] |  |  |  | micromolar range potency |  | 
